Paper PMC10013565 (Journal of Enzyme Inhibition and Medicinal Chemistry, 2023)

Tests used:
hCA I = hCA I (Homo sapiens, UniProt P00915); assay: stopped-flow CO2 hydrase assay, hCA I; format: biochemical
hCA II = hCA II (Homo sapiens, UniProt P00918); assay: stopped-flow CO2 hydrase assay, hCA II; format: biochemical
hCA IX = hCA IX (Homo sapiens, UniProt Q16790); assay: biochemical
hCA XII = hCA XII (Homo sapiens, UniProt O43570); assay: stopped-flow CO2 hydrase assay, hCA XII; format: biochemical
Sequence of hCA XII (O43570 25-354): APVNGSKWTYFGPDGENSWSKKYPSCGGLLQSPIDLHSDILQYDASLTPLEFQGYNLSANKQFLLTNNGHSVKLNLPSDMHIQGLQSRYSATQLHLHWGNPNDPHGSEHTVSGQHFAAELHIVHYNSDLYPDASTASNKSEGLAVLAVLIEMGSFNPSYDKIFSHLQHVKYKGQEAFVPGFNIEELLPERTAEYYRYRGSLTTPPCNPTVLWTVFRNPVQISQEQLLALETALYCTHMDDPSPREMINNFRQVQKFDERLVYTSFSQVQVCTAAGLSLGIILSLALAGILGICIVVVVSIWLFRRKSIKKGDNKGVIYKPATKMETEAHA

Sequence of hCA I (P00915 whole entry): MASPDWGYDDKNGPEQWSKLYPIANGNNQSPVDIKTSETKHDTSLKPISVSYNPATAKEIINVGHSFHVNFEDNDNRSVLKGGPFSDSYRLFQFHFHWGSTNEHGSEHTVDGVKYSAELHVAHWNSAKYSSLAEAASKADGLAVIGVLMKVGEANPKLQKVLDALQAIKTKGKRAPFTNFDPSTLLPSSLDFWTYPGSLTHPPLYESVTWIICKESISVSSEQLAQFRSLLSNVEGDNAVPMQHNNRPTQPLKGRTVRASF

SMILES | Ki (hCA I) | Ki (hCA II) | Ki (hCA IX) | Ki (hCA XII)
O=C(c1cc2ccccc2oc1=O)N1CCN(S(=O)(=O)c2ccc([N+](=O)[O-])cc2)CC1 [6a, 3–(4-((4-Nitrophenyl)sulphonyl)piperazine-1-carbonyl)-2H-chromen-2-one] | > 100 µM | > 100 µM | 7.1 µM | 9.1 µM
O=C(c1cc2ccccc2oc1=O)N1CCN(S(=O)(=O)c2cccs2)CC1 [6c, 3–(4-(Thiophen-2-ylsulfonyl)piperazine-1-carbonyl)-2H-chromen-2-one] | > 100 µM | > 100 µM | – | 66.7 µM
O=C(c1cc2ccccc2oc1=O)N1CCN(S(=O)(=O)c2ccc(Br)s2)CC1 [6d, 3–(4-((5-Bromothiophen-2-yl)sulphonyl)piperazine-1-carbonyl)-2H-chromen-2-one] | > 100 µM | > 100 µM | 5.56 µM | 9.8 µM
CCS(=O)(=O)N1CCN(C(=O)c2cc3ccccc3oc2=O)CC1 [6e, 3–(4-(Ethylsulfonyl)piperazine-1-carbonyl)-2H-chromen-2-one] | > 100 µM | > 100 µM | 37.8 µM | 26.1 µM
O=C(c1cc2ccccc2oc1=O)N1CCN(C(=S)Nc2ccccc2Cl)CC1 [7a, N-(2-chlorophenyl)-4–(2-oxo-2H-chromene-3-carbonyl)piperazine-1-carbothioamide] | > 100 µM | > 100 µM | 72 µM | 47.8 µM
O=C(c1cc2ccccc2oc1=O)N1CCN(C(=S)Nc2ccc(Cl)cc2)CC1 [7b, N-(4-chlorophenyl)-4–(2-oxo-2H-chromene-3-carbonyl)piperazine-1-carbothioamide] | > 100 µM | > 100 µM | 9.2 µM | 8 µM
O=C(c1cc2ccccc2oc1=O)N1CCN(C(=S)Nc2ccccc2)CC1 [7c, 4–(2-Oxo-2H-chromene-3-carbonyl)-N-phenylpiperazine-1-carbothioamide] | > 100 µM | > 100 µM | – | 31.8 µM
O=C(c1cc2ccc(O)cc2oc1=O)N1CCN(S(=O)(=O)c2ccc(F)cc2)CC1 [12a, 3–(4-((4-Fluorophenyl)sulphonyl)piperazine-1-carbonyl)-7-hydroxy-2H-chromen-2-one] | > 100 µM | > 100 µM | > 100 µM | 86.6 µM
O=C(c1cc2ccc(O)cc2oc1=O)N1CCN(S(=O)(=O)c2ccccc2)CC1 [12b, 7-Hydroxy-3–(4-(phenylsulfonyl)piperazine-1-carbonyl)-2H-chromen-2-one] | > 100 µM | > 100 µM | > 100 µM | 9.3 µM
O=C(c1cc2ccc(O)cc2oc1=O)N1CCN(S(=O)(=O)c2ccc(Br)s2)CC1 [12c, 3–(4-((5-Bromothiophen-2-yl)sulphonyl)piperazine-1-carbonyl)-7-hydroxy-2H-chromen-2-one] | > 100 µM | > 100 µM | 50.7 µM | > 100 µM
O=C(c1c(O)c2ccccc2oc1=O)N1CCN(S(=O)(=O)c2ccc(F)cc2)CC1 [16a, 3–(4-((4-Fluorophenyl)sulphonyl)piperazine-1-carbonyl)-4-hydroxy-2H-chromen-2-one] | > 100 µM | > 100 µM | > 100 µM | 92.2 µM
O=C(c1c(O)c2ccccc2oc1=O)N1CCN(S(=O)(=O)c2ccccc2)CC1 [16b, 4-Hydroxy-3–(4-(phenylsulfonyl)piperazine-1-carbonyl)-2H-chromen-2-one] | > 100 µM | > 100 µM | 90.9 µM | 9.5 µM
O=C(c1c(O)c2ccccc2oc1=O)N1CCN(S(=O)(=O)c2ccc(Br)s2)CC1 [16c, 3–(4-((5-Bromothiophen-2-yl)sulphonyl)piperazine-1-carbonyl)-4-hydroxy-2H-chromene-2-one] | > 100 µM | > 100 µM | > 100 µM | 36.5 µM
C/C(=N\OCc1ccc(F)cc1)c1cc2ccccc2oc1=O [20a, (E)-3–(1-(((4-fluorobenzyl)oxy)imino)ethyl)-2H-chromen-2-one] | > 100 µM | > 100 µM | 62.1 µM | –
C/C(=N\OCc1ccc(Cl)cc1)c1cc2ccccc2oc1=O [20b, (E)-3–(1-(((4-chlorobenzyl)oxy)imino)ethyl)-2H-chromen-2-one] | > 100 µM | > 100 µM | 8.9 µM | 9.4 µM
